Reference: patent US6803191B2, “Candida albicans two-component hybrid kinase gene, CaNik1, and use thereof” (University of Iowa Research Foundation, priority 1997, dated 2004)
Marks after values point to notes of the source that are not given here.

Test system: homozygous deletion mutant (HH80)
Test: Growth of CaNik1 deletion mutant HH80 spot plated on agar plates with supplements (osmotic agents, inhibitors, carbon sources)
Type: cell-based, Candida albicans
Conditions: for Phenotypic effect in HH80: growth on agar plates: Lee's modified medium or YPD, 2 or 3 days at 25° C. and 37° C.; for Differential sensitivity: growth of mutant strain HH80 versus control strains CAI8 and CAI8U5: agar with modified Lee's medium plus ingredient, 25° C. and 37° C., three independent experiments
Procedure: Finally, growth of the CaNik1 deletion mutant HH80 was tested at 25° C. and 37° C. for differential sensitivity to osmotic strength and a variety of inhibitors.

Compound | Differential sensitivity: growth of mutant strain HH80 versus control strains CAI8 and CAI8U5 | other results
O=S(=O)([O-])c1cc(Nc2nc(Nc3ccccc3)nc(N(CCO)CCO)n2)ccc1/C=C/c1ccc(Nc2nc(Nc3ccccc3)nc(N(CCO)CCO)n2)cc1S(=O)(=O)[O-].[Na+].[Na+] [Calcofluor] | no qualitative differences | Phenotypic effect in HH80: growth on agar plates (Calcofluor 20-40 μg/mL): +++^v
polymyxin B | no qualitative differences | –
OC[C@@H](O)[C@@H](O)[C@H](O)[C@@H](O)CO [Sorbitol] | no qualitative differences | Phenotypic effect in HH80: growth on agar plates (1.2 M Sorbitol): ++++
[Cl-].[Na+] [NaCl] | no qualitative differences | Phenotypic effect in HH80: growth on agar plates (1 M NaCl): ++; Phenotypic effect in HH80: growth on agar plates (1.5 M NaCl): +
Cn1c(=O)c2c(ncn2C)n(C)c1=O [Caffeine] | no qualitative differences | –
[Cl-].[K+] [KCl] | no qualitative differences | Phenotypic effect in HH80: growth on agar plates (1 M KCl): ++
OC[C@@H](O)[C@H](O)[C@@H](O)CO [Xylitol] | – | Phenotypic effect in HH80: growth on agar plates (1 M Xylitol): ++++
O=S(=O)([O-])[O-].[Mg+2] [MgSO4] | no qualitative differences | Phenotypic effect in HH80: growth on agar plates (0.5 m MgSO4): ++
